Experimental data taken from patent US11370769B2, “TRPC5 inhibitors and methods of using same” (BOARD OF REGENTS OF THE UNIVERSITY OF NEBRASKA, priority 2017, dated 2022).

What was measured:
kinase = assay: standard kinase profiling assays; format: biochemical
TRPC6 = target: T1, TRPC6 (Homo sapiens, UniProt Q9Y210); assay: HEK293 whole-cell patch clamp recording, TRPC6 inhibition assay; format: cell-based; settings: 30 μM, HEK cells expressing TRPC6, OAG 30 μM
T1 construct: expressed in transfected cells; host or cells: HEK293
T1 sequence (Q9Y210 1-931): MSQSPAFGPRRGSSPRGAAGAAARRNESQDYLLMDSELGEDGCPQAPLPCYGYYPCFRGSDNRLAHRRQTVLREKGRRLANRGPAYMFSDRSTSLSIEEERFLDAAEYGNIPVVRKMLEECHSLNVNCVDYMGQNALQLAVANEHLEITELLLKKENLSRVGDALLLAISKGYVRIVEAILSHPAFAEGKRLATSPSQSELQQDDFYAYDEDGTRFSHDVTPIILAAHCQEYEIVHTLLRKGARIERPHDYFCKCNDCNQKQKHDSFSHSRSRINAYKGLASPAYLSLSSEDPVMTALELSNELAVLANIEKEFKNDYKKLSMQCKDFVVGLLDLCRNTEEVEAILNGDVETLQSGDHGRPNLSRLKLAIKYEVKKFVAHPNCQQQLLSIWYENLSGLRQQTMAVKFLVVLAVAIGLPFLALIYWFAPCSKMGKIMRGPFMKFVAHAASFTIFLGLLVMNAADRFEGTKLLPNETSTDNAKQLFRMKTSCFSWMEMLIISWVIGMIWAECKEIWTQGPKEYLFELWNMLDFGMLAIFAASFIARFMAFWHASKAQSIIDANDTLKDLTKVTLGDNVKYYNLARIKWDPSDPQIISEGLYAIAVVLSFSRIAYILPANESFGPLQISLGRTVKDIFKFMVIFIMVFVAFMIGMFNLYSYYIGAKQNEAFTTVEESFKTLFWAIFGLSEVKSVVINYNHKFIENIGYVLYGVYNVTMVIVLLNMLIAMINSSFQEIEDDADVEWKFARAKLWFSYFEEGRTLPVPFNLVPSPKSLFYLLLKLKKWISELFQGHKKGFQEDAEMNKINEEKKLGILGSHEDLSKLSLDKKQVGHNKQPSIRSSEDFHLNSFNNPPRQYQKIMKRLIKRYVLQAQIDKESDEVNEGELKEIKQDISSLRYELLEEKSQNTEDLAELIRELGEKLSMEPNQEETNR
Procedure: TRPC4, TRPC5, and TRPC6 inhibition assay: HEK293 whole-cell recordings Whole-cell patch clamp recording was performed 16 h after transfection. The bath solution contained (in mM): 140 NaCl, 5 KCl, 10 HEPES, 2 MgCl2, 2 CaCl2, 10 glucose with pH7.4 adjusted with NaOH. The intracellular solution contained (in mM): 140 KCl, 5 EGTA, 10 HEPES, 2 MgCl2 with pH7.4 adjusted with KOH. The patch pipettes were made using a two-step-protocol (P-97, Sutter Instrument). The pipette resistance was maintained between 4 to 8 MΩ. Once the whole-cell configuration was achieved, cells were clamped at a holding potential of −60 mV, and given a 50 ms ramp stimulation from −100 mV to +100 mV in every 5 s. All currents were filtered at 2 KHz (Axopatch 200B amplifier, Axon Instruments, Union City, Calif.) and digitized at 10 KHz for whole-cell recordings using Axon pCLAMP 10.4. Data were then analyzed using Clampfit 10.4 (Molecular Devices).
HEK293 cell culture and transfection: Transfection of HEK293 cells was carried out using Plus reagent (Invitrogen) and Lipofectamine (Invitrogen) according to standard protocols. For heterologous expression of TRP channels in HEK293 cells, 1 μg of TRPC5-GFP, TRPC6-GFP or TRPC4-GFP plasmids were used to transfect HEK293 cells in a 3.5 cm petri dish where cells were allowed to grow to 80% confluence. Electrophysiology was carried out after 16 h incubation.

c1ccc(Cn2c(NCc3ccco3)nc3ccccc32)cc1 [AC1903]
off-target effects in kinase profiling (kinase): not found to have any off-target effects
block of OAG-induced TRPC6 current (TRPC6): failed to block
